Assay results reported in patent US20070015828A1 (Wyeth, priority 2005, published 2007).

Experiments:
[1] = Hygroscopicity; assay type: physicochemical
[2] = biological target: T1, Adrenergic, Alpha 2A (h) (Homo sapiens, UniProt P08913); assay: Receptor binding assay: Adrenergic Alpha 2A; details: Test Compound @ 10 1 M
T1 construct: Novascreen (assay provider)

[3] = tested on: Adrenergic, Alpha 2B; assay: Receptor binding assay: Adrenergic Alpha 2B; details: Test Compound @ 10 1 M
[4] = biological target: T2, Benzodiazepine, peripheral (h) (Homo sapiens, UniProt P30536); assay: Receptor binding assay: Benzodiazepine peripheral; details: Test Compound @ 10 1 M
T2 construct: Novascreen (assay provider)
T2 sequence (P30536 whole entry): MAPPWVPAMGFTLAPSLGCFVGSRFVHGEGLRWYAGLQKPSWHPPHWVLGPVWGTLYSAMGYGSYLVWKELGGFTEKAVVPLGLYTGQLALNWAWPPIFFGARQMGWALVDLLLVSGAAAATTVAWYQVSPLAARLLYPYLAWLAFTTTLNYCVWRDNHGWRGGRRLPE

[5] = biological target: Cannabinoid, CB1 (hr) (Homo sapiens, UniProt P21554); assay: Receptor binding assay: Cannabinoid CB1; details: Test Compound @ 10 1 M
Cannabinoid, CB1 (hr), sequence (P21554 whole entry): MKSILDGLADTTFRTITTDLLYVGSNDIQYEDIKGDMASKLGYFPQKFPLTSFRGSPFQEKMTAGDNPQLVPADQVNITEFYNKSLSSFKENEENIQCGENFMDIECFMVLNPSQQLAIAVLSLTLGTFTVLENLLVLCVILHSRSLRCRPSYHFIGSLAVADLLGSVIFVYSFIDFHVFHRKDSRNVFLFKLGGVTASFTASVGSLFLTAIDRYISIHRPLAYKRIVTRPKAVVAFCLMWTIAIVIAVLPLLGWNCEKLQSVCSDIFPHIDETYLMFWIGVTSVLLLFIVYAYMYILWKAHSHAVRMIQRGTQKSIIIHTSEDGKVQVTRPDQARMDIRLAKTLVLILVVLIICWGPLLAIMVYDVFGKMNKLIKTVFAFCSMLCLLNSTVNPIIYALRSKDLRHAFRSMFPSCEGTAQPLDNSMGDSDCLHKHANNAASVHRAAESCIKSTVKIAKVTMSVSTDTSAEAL

[6] = biological target: Dopamine, D2s (hr) (Homo sapiens, UniProt P14416); assay: Receptor binding assay: Dopamine D2s; details: Test Compound @ 10 1 M
Dopamine, D2s (hr), sequence (P14416 1-414 isoform P14416-2): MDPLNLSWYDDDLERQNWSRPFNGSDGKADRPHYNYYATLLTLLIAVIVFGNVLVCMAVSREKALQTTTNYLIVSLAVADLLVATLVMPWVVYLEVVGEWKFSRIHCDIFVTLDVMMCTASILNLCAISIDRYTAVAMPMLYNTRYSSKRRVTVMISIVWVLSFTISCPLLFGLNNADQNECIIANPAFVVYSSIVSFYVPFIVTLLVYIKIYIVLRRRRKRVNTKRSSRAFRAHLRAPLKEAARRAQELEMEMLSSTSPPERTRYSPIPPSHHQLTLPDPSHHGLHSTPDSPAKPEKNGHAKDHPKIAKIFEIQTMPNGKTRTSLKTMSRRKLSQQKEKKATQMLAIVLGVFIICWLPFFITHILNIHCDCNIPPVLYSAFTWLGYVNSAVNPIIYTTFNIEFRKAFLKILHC

[7] = biological target: Dopamine, D3 (hr) (Homo sapiens, UniProt P35462); assay: Receptor binding assay: Dopamine D3; details: Test Compound @ 10 1 M
Dopamine, D3 (hr), sequence (P35462 whole entry): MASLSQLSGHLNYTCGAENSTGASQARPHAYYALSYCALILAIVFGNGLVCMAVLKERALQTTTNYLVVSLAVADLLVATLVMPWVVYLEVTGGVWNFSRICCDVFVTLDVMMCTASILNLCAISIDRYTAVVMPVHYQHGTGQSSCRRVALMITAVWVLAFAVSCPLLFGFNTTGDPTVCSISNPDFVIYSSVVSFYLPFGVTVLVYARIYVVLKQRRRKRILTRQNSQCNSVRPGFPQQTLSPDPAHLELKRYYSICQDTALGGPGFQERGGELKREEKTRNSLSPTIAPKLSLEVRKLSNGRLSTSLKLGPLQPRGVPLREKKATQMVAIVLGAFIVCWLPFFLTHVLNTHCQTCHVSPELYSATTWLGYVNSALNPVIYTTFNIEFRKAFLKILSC

[8] = biological target: Dopamine, D4.4 (hr) (Homo sapiens, UniProt P21917); assay: Receptor binding assay: Dopamine D4.4; details: Test Compound @ 10 1 M
Dopamine, D4.4 (hr), sequence (P21917 whole entry): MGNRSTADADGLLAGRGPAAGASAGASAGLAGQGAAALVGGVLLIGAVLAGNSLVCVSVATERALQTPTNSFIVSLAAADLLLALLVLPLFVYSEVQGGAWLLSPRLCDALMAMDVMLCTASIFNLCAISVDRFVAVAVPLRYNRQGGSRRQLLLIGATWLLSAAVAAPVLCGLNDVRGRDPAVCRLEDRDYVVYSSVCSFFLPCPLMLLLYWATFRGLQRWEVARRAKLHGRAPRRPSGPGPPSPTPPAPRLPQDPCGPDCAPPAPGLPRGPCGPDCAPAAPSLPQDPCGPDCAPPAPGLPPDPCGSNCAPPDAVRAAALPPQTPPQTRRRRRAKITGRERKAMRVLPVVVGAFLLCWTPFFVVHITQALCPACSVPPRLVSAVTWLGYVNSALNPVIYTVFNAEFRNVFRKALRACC

[9] = tested on: GABA A, Agonist site; assay: Receptor binding assay: GABA A agonist site; details: Test Compound @ 10 1 M
[10] = tested on: Glutamate, AMPA Site; assay: Receptor binding assay: Glutamate AMPA site; details: Test Compound @ 10 1 M
[11] = tested on: Glutamate, NMDA agonist Site; assay: Receptor binding assay: Glutamate NMDA agonist site; details: Test Compound @ 10 1 M
[12] = tested on: Glutamate, NMDA Glycine; assay: Receptor binding assay: Glutamate NMDA Glycine; details: Test Compound @ 10 1 M
[13] = biological target: T3, Histamine, H1 (Bos taurus, UniProt P30546); assay: Histamine H1 binding assay; details: Test Compound @ 10 1 M, read-out: Receptor Binding % Inhibition
T3 construct: Novascreen (assay provider)
T3 sequence (P30546 whole entry): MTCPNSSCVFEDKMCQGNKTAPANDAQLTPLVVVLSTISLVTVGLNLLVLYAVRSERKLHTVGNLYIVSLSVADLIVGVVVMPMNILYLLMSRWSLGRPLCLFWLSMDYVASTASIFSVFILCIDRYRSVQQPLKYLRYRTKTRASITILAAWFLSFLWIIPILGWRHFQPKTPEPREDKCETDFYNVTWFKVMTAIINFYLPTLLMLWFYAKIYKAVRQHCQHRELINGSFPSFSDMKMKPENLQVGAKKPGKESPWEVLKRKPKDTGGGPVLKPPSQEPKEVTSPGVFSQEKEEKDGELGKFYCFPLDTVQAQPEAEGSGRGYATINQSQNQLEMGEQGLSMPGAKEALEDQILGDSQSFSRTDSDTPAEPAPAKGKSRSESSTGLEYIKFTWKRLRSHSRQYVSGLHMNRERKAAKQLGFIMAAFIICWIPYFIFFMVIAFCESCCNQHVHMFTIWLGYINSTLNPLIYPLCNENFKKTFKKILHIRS

[14] = tested on: Histamine, H3; assay: Receptor binding assay: Histamine H3; details: Test Compound @ 10 1 M
[15] = tested on: Imidazoline, I2 central; assay: Imidazoline binding assay: I2 central; details: Test Compound @ 10 1 M
[16] = biological target: T4, Muscarinic, M1 (hr) (Homo sapiens, UniProt P11229); assay: Receptor binding assay: Muscarinic M1; details: Test Compound @ 10 1 M
T4 construct: Novascreen (contract assay)
T4 sequence (P11229 whole entry): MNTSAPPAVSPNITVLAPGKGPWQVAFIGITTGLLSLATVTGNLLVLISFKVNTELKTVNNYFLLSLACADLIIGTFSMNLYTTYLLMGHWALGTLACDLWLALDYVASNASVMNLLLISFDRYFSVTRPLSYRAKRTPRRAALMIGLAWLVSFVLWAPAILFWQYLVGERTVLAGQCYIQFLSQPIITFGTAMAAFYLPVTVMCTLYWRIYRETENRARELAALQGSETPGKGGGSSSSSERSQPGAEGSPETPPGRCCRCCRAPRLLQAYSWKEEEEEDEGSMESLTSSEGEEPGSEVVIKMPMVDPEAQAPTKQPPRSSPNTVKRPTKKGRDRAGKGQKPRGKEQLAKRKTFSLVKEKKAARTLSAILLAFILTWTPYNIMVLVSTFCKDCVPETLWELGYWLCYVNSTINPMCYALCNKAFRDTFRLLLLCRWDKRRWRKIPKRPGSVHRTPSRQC

[17] = tested on: Oxidase, MAO-A, Central; assay: Receptor binding assay: Oxidase MAO-A central (second line); details: Test Compound @ 10 1 M
[18] = biological target: T5, Serotonin, 5HT1D (h) (Homo sapiens, UniProt P28221); assay: Receptor binding assay: Serotonin 5HT1D; details: Test Compound @ 10 1 M
T5 construct: Novascreen (contract assay)
T5 sequence (P28221 whole entry): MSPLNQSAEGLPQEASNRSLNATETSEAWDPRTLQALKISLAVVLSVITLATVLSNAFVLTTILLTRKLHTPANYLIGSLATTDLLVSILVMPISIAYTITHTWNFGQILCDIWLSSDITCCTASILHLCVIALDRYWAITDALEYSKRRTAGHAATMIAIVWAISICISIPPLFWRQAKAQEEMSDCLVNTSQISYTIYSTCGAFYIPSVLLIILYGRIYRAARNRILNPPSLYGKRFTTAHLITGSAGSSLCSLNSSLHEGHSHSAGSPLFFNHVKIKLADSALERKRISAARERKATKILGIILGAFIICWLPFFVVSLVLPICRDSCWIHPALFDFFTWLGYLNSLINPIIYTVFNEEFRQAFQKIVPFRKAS

[19] = tested on: Serotonin, 5HT2C; assay: Receptor binding assay: Serotonin 5HT2C; details: Test Compound @ 10 1 M
[20] = biological target: T6, Serotonin, 5HT3 (hr) (Homo sapiens, UniProt P46098); assay: Receptor binding assay: Serotonin 5HT3; details: Test Compound @ 10 1 M
T6 construct: Novascreen (contract assay)
T6 sequence (P46098 24-478): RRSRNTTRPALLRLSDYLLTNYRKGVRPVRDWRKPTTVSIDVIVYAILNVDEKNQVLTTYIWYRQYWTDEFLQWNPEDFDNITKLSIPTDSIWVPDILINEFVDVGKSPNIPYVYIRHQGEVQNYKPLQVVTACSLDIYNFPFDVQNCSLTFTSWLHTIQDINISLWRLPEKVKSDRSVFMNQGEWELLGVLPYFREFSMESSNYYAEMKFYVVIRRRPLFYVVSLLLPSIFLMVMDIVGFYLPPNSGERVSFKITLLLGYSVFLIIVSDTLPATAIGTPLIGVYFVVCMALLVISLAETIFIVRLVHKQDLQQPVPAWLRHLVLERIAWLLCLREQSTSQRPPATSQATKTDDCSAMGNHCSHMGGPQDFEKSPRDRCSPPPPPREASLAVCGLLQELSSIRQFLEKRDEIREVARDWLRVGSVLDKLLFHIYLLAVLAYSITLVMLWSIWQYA

[21] = tested on: Serotonin, 5HT4; assay: Receptor binding assay: Serotonin 5HT4; details: Test Compound @ 10 1 M
[22] = biological target: T7, Serotonin, 5HT5A (hr) (Homo sapiens, UniProt P47898); assay: Receptor binding assay: Serotonin 5HT5A; details: Test Compound @ 10 1 M
T7 construct: Novascreen (contract assay)
T7 sequence (P47898 whole entry): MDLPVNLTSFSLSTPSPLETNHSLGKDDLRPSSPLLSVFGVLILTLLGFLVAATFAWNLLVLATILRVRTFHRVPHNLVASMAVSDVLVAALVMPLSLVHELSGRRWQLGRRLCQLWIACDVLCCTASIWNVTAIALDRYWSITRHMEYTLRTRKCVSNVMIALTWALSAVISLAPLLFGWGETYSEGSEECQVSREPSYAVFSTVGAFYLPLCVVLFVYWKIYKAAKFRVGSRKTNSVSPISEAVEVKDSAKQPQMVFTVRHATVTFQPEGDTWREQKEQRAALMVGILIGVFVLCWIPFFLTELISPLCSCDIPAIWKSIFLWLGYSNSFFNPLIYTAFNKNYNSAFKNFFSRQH

[23] = tested on: Sigma 2; assay: Receptor binding assay: Sigma 2; details: Test Compound @ 10 1 M
[24] = In vitro metabolism in hepatic microsomes, dog; assay type: in vitro ADME; details: male dogs, read-out: t1/2 in hepatic microsomes
Protocol: (§1) In vitro metabolism of 1-[2-dimethylamino-1-(4-phenol)ethyl]-cis-1,4-cyclohexandiol was conducted in the hepatic microsomes of Sprague-Dawley rats, male dogs, male monkeys and mixed male and female humans to characterize metabolic stability and identification of metabolites. 1-[2-dimethylamino-1-(4-phenol)ethyl]-cis-1,4-cyclohexandiol was stable (t1/2>60 minutes) in hepatic microsomes indicating Phase I and II metabolism was minimal in all species.

[25] = In vitro metabolism in hepatic microsomes, monkey; assay type: in vitro ADME; details: male monkeys, read-out: t1/2 in hepatic microsomes
Protocol: as §1

[26] = tested on: spinal nerve ligation model of neuropathic pain, tactile allodynia; assay: Spinal nerve ligation model of neuropathic pain, tactile allodynia; assay type: in vivo; details: rat, up to 100 mg/kg
Protocol: 1-[2-dimethylamino-1-(4-phenol)ethyl]-cis-1,4-cyclohexandiol was evaluated in two in-vivo animal models for pain, including a Visceral Pain model and a Neuropathic Pain model.
Surgical procedures were performed under 4% isoflurane/O2 anesthesia, delivered via nose cone and maintained at 2.5% for the duration of the surgery. After induction of anesthesia, the incision site was shaved and prepared in a sterile manner. Spinal nerve ligation (SNL) surgery was performed as previously described [Kim, S. H. and Chung, J. M., An experimental model for peripheral neuropathy produced by segmental spinal nerve ligation in the rat, Pain, 50 (1992) 355-63] with the exception that nerve injury was produced by tight ligation of the left L5 spinal nerve. Briefly, a midline incision was made and the L5 transverse process was removed and the nerve was tightly ligated with 6-0 silk suture material and the wound was closed in layers with 4-0 vicryl suture and the skin closed with wound clips.

[27] = tested on: rat tail flick assay; assay: Rat tail flick assay (acute pain); assay type: in vivo; details: up to 30 mg/kg po

T1 sequence (P08913 whole entry): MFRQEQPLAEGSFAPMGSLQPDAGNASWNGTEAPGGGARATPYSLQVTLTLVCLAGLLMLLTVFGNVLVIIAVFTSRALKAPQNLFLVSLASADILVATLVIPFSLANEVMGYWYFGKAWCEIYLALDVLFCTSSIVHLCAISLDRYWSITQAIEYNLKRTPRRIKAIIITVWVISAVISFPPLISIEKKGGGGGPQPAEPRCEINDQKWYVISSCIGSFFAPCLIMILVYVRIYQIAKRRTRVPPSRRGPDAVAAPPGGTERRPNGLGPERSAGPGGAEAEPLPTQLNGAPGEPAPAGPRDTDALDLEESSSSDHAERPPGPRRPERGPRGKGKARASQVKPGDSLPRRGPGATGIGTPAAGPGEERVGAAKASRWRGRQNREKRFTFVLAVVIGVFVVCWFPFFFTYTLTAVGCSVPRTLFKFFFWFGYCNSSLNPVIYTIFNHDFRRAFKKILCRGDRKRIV

## CN(C)CC(c1ccc(O)cc1)C1(O)CCC(O)CC1 (stereo not drawn) [1-[2-dimethylamino-1-(4-phenol)ethyl]-cis-1,4-cyclohexandiol]
[1]
  Hygroscopicity: Non-hygroscopic
[1]; at 26.30C/90% RH, weight gain is lost upon reduction in % RH
  Hygroscopicity, weight gain: < 2%
[2]
  inhibition at 10 µM: 10.4%
[3]
  Receptor Binding % Inhibition: 8.60%
[4]
  inhibition at 10 µM: 1.65%
[5]
  inhibition at 10 µM: 8.11%
[6]
  inhibition at 10 µM: 6.17%
[7]
  inhibition at 10 µM: 3.36%
[8]
  inhibition at 10 µM: 3.39%
[9]
  Receptor Binding % Inhibition: −16.06%
[10]
  Receptor Binding % Inhibition: 2.50%
[11]
  Receptor Binding % Inhibition: −2.99%
[12]
  Receptor Binding % Inhibition: 2.24%
[13]
  inhibition at 10 µM: -7.84%
[14]
  Receptor Binding % Inhibition: 14.00%
[15]
  Receptor Binding % Inhibition: 3.24%
[16]
  inhibition at 10 µM: -5.96%
[17]
  Receptor Binding % Inhibition: 2.43%
[18]
  inhibition at 10 µM: 7.26%
[19]
  Receptor Binding % Inhibition: 10.05%
[20]
  inhibition at 10 µM: 9.72%
[21]
  Receptor Binding % Inhibition: 3.98%
[22]
  inhibition at 10 µM: 19.9%
[23]
  Receptor Binding % Inhibition: 1.00%
[24]
  half-life: > 1 h
[25]
  half-life: > 1 h
[26]
  reversal of tactile allodynia: not found to reverse
[27]
  effect on acute pain: not found to affect acute pain
